From the NIST ThermoML archive (doi:10.1021/acs.jced.9b00046)
± gives the expanded uncertainty stated by the source.

Test: mn = molality of the nth substance listed, in mol/kg
Details: 99.6 kPa, Liquid; for viscosity: Capillary tube (Ostwald / Ubbelohde) method; for mass density: Vibrating tube method

## CNC(C)=O [N-methylacetamide] + [Cl-].[Cl-].[Mg+2]
308.15 K, m2 = 0
  viscosity: 3.488 ± 0.043 mPa·s
  mass density: 945.71 ± 1.9 kg/m3
308.15 K, m2 = 0.00111
  viscosity: 3.491 ± 0.043 mPa·s
  mass density: 945.76 ± 1.9 kg/m3
308.15 K, m2 = 0.004
  viscosity: 3.502 ± 0.043 mPa·s
  mass density: 945.9 ± 1.9 kg/m3
308.15 K, m2 = 0.00479
  viscosity: 3.505 ± 0.043 mPa·s
  mass density: 945.94 ± 1.9 kg/m3
308.15 K, m2 = 0.00663
  viscosity: 3.512 ± 0.043 mPa·s
  mass density: 946.03 ± 1.9 kg/m3
308.15 K, m2 = 0.00734
  viscosity: 3.514 ± 0.043 mPa·s
  mass density: 946.06 ± 1.9 kg/m3
308.15 K, m2 = 0.00868
  viscosity: 3.52 ± 0.043 mPa·s
  mass density: 946.13 ± 1.9 kg/m3
308.15 K, m2 = 0.01179
  viscosity: 3.531 ± 0.043 mPa·s
  mass density: 946.27 ± 1.9 kg/m3
308.15 K, m2 = 0.01529
  viscosity: 3.544 ± 0.044 mPa·s
  mass density: 946.45 ± 1.9 kg/m3
308.15 K, m2 = 0.02124
  viscosity: 3.566 ± 0.044 mPa·s
  mass density: 946.72 ± 1.9 kg/m3
308.15 K, m2 = 0.02416
  viscosity: 3.577 ± 0.044 mPa·s
  mass density: 946.86 ± 1.9 kg/m3
308.15 K, m2 = 0.05144
  viscosity: 3.681 ± 0.045 mPa·s
  mass density: 948.15 ± 1.9 kg/m3
308.15 K, m2 = 0.0831
  viscosity: 3.798 ± 0.047 mPa·s
  mass density: 949.6 ± 1.9 kg/m3
313.15 K, m2 = 0
  viscosity: 3.073 ± 0.038 mPa·s
  mass density: 941.53 ± 1.9 kg/m3
313.15 K, m2 = 0.00111
  viscosity: 3.077 ± 0.038 mPa·s
  mass density: 941.57 ± 1.9 kg/m3
313.15 K, m2 = 0.004
  viscosity: 3.087 ± 0.038 mPa·s
  mass density: 941.69 ± 1.9 kg/m3
313.15 K, m2 = 0.00479
  viscosity: 3.09 ± 0.038 mPa·s
  mass density: 941.73 ± 1.9 kg/m3
313.15 K, m2 = 0.00663
  viscosity: 3.097 ± 0.038 mPa·s
  mass density: 941.81 ± 1.9 kg/m3
313.15 K, m2 = 0.00734
  viscosity: 3.099 ± 0.038 mPa·s
  mass density: 941.85 ± 1.9 kg/m3
313.15 K, m2 = 0.00868
  viscosity: 3.103 ± 0.038 mPa·s
  mass density: 941.92 ± 1.9 kg/m3
313.15 K, m2 = 0.01179
  viscosity: 3.114 ± 0.038 mPa·s
  mass density: 942.07 ± 1.9 kg/m3
313.15 K, m2 = 0.01529
  viscosity: 3.127 ± 0.038 mPa·s
  mass density: 942.24 ± 1.9 kg/m3
313.15 K, m2 = 0.02124
  viscosity: 3.147 ± 0.039 mPa·s
  mass density: 942.53 ± 1.9 kg/m3
313.15 K, m2 = 0.02416
  viscosity: 3.156 ± 0.039 mPa·s
  mass density: 942.67 ± 1.9 kg/m3
313.15 K, m2 = 0.05144
  viscosity: 3.251 ± 0.04 mPa·s
  mass density: 943.94 ± 1.9 kg/m3
313.15 K, m2 = 0.0831
  viscosity: 3.361 ± 0.041 mPa·s
  mass density: 945.45 ± 1.9 kg/m3
318.15 K, m2 = 0
  viscosity: 2.723 ± 0.034 mPa·s
  mass density: 937.33 ± 1.9 kg/m3
318.15 K, m2 = 0.00111
  viscosity: 2.725 ± 0.034 mPa·s
  mass density: 937.37 ± 1.9 kg/m3
318.15 K, m2 = 0.004
  viscosity: 2.735 ± 0.034 mPa·s
  mass density: 937.51 ± 1.9 kg/m3
318.15 K, m2 = 0.00479
  viscosity: 2.737 ± 0.034 mPa·s
  mass density: 937.54 ± 1.9 kg/m3
318.15 K, m2 = 0.00663
  viscosity: 2.743 ± 0.034 mPa·s
  mass density: 937.63 ± 1.9 kg/m3
318.15 K, m2 = 0.00734
  viscosity: 2.747 ± 0.034 mPa·s
  mass density: 937.66 ± 1.9 kg/m3
318.15 K, m2 = 0.00868
  viscosity: 2.75 ± 0.034 mPa·s
  mass density: 937.73 ± 1.9 kg/m3
318.15 K, m2 = 0.01179
  viscosity: 2.76 ± 0.034 mPa·s
  mass density: 937.87 ± 1.9 kg/m3
318.15 K, m2 = 0.01529
  viscosity: 2.771 ± 0.034 mPa·s
  mass density: 938.04 ± 1.9 kg/m3
318.15 K, m2 = 0.02124
  viscosity: 2.792 ± 0.034 mPa·s
  mass density: 938.33 ± 1.9 kg/m3
318.15 K, m2 = 0.02416
  viscosity: 2.801 ± 0.034 mPa·s
  mass density: 938.47 ± 1.9 kg/m3
318.15 K, m2 = 0.05144
  viscosity: 2.89 ± 0.036 mPa·s
  mass density: 939.77 ± 1.9 kg/m3
318.15 K, m2 = 0.0831
  viscosity: 2.994 ± 0.037 mPa·s
  mass density: 941.26 ± 1.9 kg/m3
323.15 K, m2 = 0
  viscosity: 2.438 ± 0.03 mPa·s
  mass density: 933.16 ± 1.9 kg/m3
323.15 K, m2 = 0.00111
  viscosity: 2.44 ± 0.03 mPa·s
  mass density: 933.2 ± 1.9 kg/m3
323.15 K, m2 = 0.004
  viscosity: 2.448 ± 0.03 mPa·s
  mass density: 933.33 ± 1.9 kg/m3
323.15 K, m2 = 0.00479
  viscosity: 2.451 ± 0.03 mPa·s
  mass density: 933.37 ± 1.9 kg/m3
323.15 K, m2 = 0.00663
  viscosity: 2.455 ± 0.03 mPa·s
  mass density: 933.45 ± 1.9 kg/m3
323.15 K, m2 = 0.00734
  viscosity: 2.457 ± 0.03 mPa·s
  mass density: 933.48 ± 1.9 kg/m3
323.15 K, m2 = 0.00868
  viscosity: 2.462 ± 0.03 mPa·s
  mass density: 933.54 ± 1.9 kg/m3
323.15 K, m2 = 0.01179
  viscosity: 2.471 ± 0.03 mPa·s
  mass density: 933.7 ± 1.9 kg/m3
323.15 K, m2 = 0.01529
  viscosity: 2.48 ± 0.031 mPa·s
  mass density: 933.87 ± 1.9 kg/m3
323.15 K, m2 = 0.02124
  viscosity: 2.495 ± 0.031 mPa·s
  mass density: 934.15 ± 1.9 kg/m3
323.15 K, m2 = 0.02416
  viscosity: 2.505 ± 0.031 mPa·s
  mass density: 934.29 ± 1.9 kg/m3
323.15 K, m2 = 0.05144
  viscosity: 2.579 ± 0.032 mPa·s
  mass density: 935.6 ± 1.9 kg/m3
323.15 K, m2 = 0.0831
  viscosity: 2.67 ± 0.033 mPa·s
  mass density: 937.11 ± 1.9 kg/m3
328.15 K, m2 = 0
  viscosity: 2.194 ± 0.027 mPa·s
  mass density: 928.93 ± 1.9 kg/m3
328.15 K, m2 = 0.00111
  viscosity: 2.196 ± 0.027 mPa·s
  mass density: 928.98 ± 1.9 kg/m3
328.15 K, m2 = 0.004
  viscosity: 2.203 ± 0.027 mPa·s
  mass density: 929.12 ± 1.9 kg/m3
328.15 K, m2 = 0.00479
  viscosity: 2.204 ± 0.027 mPa·s
  mass density: 929.16 ± 1.9 kg/m3
328.15 K, m2 = 0.00663
  viscosity: 2.208 ± 0.027 mPa·s
  mass density: 929.24 ± 1.9 kg/m3
328.15 K, m2 = 0.00734
  viscosity: 2.211 ± 0.027 mPa·s
  mass density: 929.29 ± 1.9 kg/m3
328.15 K, m2 = 0.00868
  viscosity: 2.214 ± 0.027 mPa·s
  mass density: 929.35 ± 1.9 kg/m3
328.15 K, m2 = 0.01179
  viscosity: 2.221 ± 0.027 mPa·s
  mass density: 929.49 ± 1.9 kg/m3
328.15 K, m2 = 0.01529
  viscosity: 2.23 ± 0.028 mPa·s
  mass density: 929.68 ± 1.9 kg/m3
328.15 K, m2 = 0.02124
  viscosity: 2.244 ± 0.028 mPa·s
  mass density: 929.95 ± 1.9 kg/m3
328.15 K, m2 = 0.02416
  viscosity: 2.251 ± 0.028 mPa·s
  mass density: 930.09 ± 1.9 kg/m3
328.15 K, m2 = 0.05144
  viscosity: 2.317 ± 0.029 mPa·s
  mass density: 931.4 ± 1.9 kg/m3
328.15 K, m2 = 0.0831
  viscosity: 2.391 ± 0.029 mPa·s
  mass density: 932.91 ± 1.9 kg/m3
